Measurements taken from patent US20010049373A1, “Materials and methods for killing nematodes and nematode eggs” (priority 2000, published 2001).

Legend:
Caenorhabditis elegans [1] = assay: C. elegans L1 larvae dose-response, 5 day visual viability score (Examples 2 and 7); type: in vivo; design: key: Dead: only stiff L1s (no movement); Dead (L4): worms are dead, but at a later larval stage; majority of worms are L1 (based on size); majority of worms are L2 (based on size); majority of worms are L3 (based on size); majority of worms are L4 (based on size); AD: majority of worms are adult; #AD: 5 adult worms or less; B!: sterile (0-25 progeny); B: low broodsize (25-100 progeny); ˜B: moderate broodsize (100-250 progeny); <: reduced broodsize (250-500 progeny); OK: no effect (˜1000+ progeny); conditions: day 5, Table 3; for 5 Day Visual Score V6: 0.3 μM (procedure of Example 2); for 5 Day Visual Score V5: 0.9 μM (procedure of Example 2); for 5 Day Visual Score V4: 2.6 μM (procedure of Example 2); for 5 Day Visual Score V3: 7.8 μM (procedure of Example 2); for 5 Day Visual Score V2: 23.3 μM (procedure of Example 2); for 5 Day Visual Score V1: 70 μM (procedure of Example 2)
Protocol: Caenorhabditis elegans adults were grown on Nematode Growth Medium (NGM) until they produced eggs, then the adults were removed.
The eggs were allowed to hatch, and the L1 larvae collected. See The Neniatode Caenorhabditis elegans (1988) Cold Spring Harbor Laboratory Press. Using a Matrix Programmable Pipette, the L1s were distributed into 96-well tissue culture plates, 20 L1 in 50 μl NGM per well. Antibiotic/Antimyotic was added to each well, and 1% by weight E. coli strain HB101. The subject anthelmintic compounds were stored at 5 mM in 100% DMSO. 0.7 μl of compounds 1-31 were added to the left-most column of wells to yield a final concentration of 70 μM in 1.4% DMSO, with 1.4% DMSO only as the control. The compounds were then subjected to 5 more 3-fold dilutions from left to right to yield 6 column concentrations of 70 μM, 23.3 μM, 7.8 μM, 2.6 μM, 0.9 μM, and 0.3 μM. Plates were stored in air-tight Rubbermaid plastic boxes at 20° C. The nematodes had cleared all control wells by day 4, and nematode viability was scored by visual examination under a 100× dissecting microscope on day 5. A visual viability scoring system was used as follows:
If several classes of worms exist in a well, then all classes are scored. If adults are present, then the brood score is also recorded. Thus, “L1/L2” would mean a mixture of L1's and L2's are present in the well. “L4/#AD/B” would mean that a mixture of L4's and adults are resent in the well. The “#AD” would mean that there are 6 or less adults, and the “B” would mean that there were 100 progeny or less.
Column VI has a compound concentration of 70 μM with sequential 3-fold dilutions reported in columns V2, V3, V4, V5, and V6, respectively, such that the V6 concentration was 0.3 μM.
(§1) The nematicidal activity of anthelmintic Compositions 48-118 were determined in accordance with the procedure outlined in Example 2.

Caenorhabditis elegans [2] = assay: HTS runs (initial and follow-up): mOD, % Run and visual score (Table 3); type: in vivo; design: key to Initial HTS Run Visual Score / Follow-up HTS Run Visual Score: Dead: only stiff L1s (no movement); Dead (L4): worms are dead, but at a later larval stage; majority of worms are L1 (based on size); majority of worms are L2 (based on size); majority of worms are L3 (based on size); majority of worms are L4 (based on size); AD: majority of worms are adult; #AD: 5 adult worms or less; B!: sterile (0-25 progeny); B: low broodsize (25-100 progeny); ˜B: moderate broodsize (100-250 progeny); <: reduced broodsize (250-500 progeny); OK: no effect (˜1000+ progeny)
Protocol: as §1

Row | Structure (SMILES) | 5 Day Visual Score V6 (Caenorhabditis elegans [1]) | 5 Day Visual Score V5 (Caenorhabditis elegans [1]) | 5 Day Visual Score V4 (Caenorhabditis elegans [1]) | 5 Day Visual Score V3 (Caenorhabditis elegans [1]) | 5 Day Visual Score V2 (Caenorhabditis elegans [1]) | Follow-up HTS Run % Run (Caenorhabditis elegans [2]) [%] | Follow-up HTS Run Visual Score (Caenorhabditis elegans [2]) | Follow-up HTS Run mOD (Caenorhabditis elegans [2]) [mOD] | Initial HTS Run % Run (Caenorhabditis elegans [2]) [%] | Initial HTS Run Visual Score (Caenorhabditis elegans [2]) | Initial HTS Run mOD (Caenorhabditis elegans [2]) [mOD] | 5 Day Visual Score V1 (Caenorhabditis elegans [1])
1 | CCC(C)Nc1cc(Oc2ccc3oc4ccccc4c3c2)ncn1 (stereo not shown) [AKC 349] | OK (no effect (˜1000+ progeny)) | OK (no effect (˜1000+ progeny)) | OK (no effect (˜1000+ progeny)) | #AD/˜B | OK (no effect (˜1000+ progeny)) | 103 | B (low broodsize (25-100 progeny)) | 139 | 127 | 2AD/B! | 247 | –
2 | CCN(C)c1cc(Oc2ccc3ccccc3c2)ncn1 [AKC 350] | OK (no effect (˜1000+ progeny)) | OK (no effect (˜1000+ progeny)) | OK (no effect (˜1000+ progeny)) | – | L1 | 101 | Dead | 136 | 126 | Dead | 245 | L1
3 | Fc1ccc(F)c(CNc2cc(Oc3cccc(Cl)c3)ncn2)c1 [AKC 354] | < (reduced broodsize (250-500 progeny)) | OK (no effect (˜1000+ progeny)) | < (reduced broodsize (250-500 progeny)) | #AD/˜B | – | 108 | B (low broodsize (25-100 progeny)) | 146 | 137 | 1AD/B | 267 | Dead
4 | FC(F)(F)c1ccc(CNc2cc(Oc3cccc(Cl)c3)ncn2)cc1 [AKC 356] | < (reduced broodsize (250-500 progeny)) | OK (no effect (˜1000+ progeny)) | OK (no effect (˜1000+ progeny)) | – | Dead | 122 | L2 | 165 | 139 | Dead | 272 | Dead
5 | COc1ccc(Oc2cc(NCc3ccc(C(F)(F)F)cc3)ncn2)cc1 [AKC 357] | OK (no effect (˜1000+ progeny)) | OK (no effect (˜1000+ progeny)) | OK (no effect (˜1000+ progeny)) | – | – | 98 | L4/AD/B! | 132 | 115 | 3AD/B | 224 | Dead
6 | Fc1ccc(Oc2cc(NCc3ccc(C(F)(F)F)cc3)ncn2)cc1 [AKC 358] | OK (no effect (˜1000+ progeny)) | OK (no effect (˜1000+ progeny)) | OK (no effect (˜1000+ progeny)) | – | Dead | 113 | L3-Dead L3 | 153 | 129 | Dead | 252 | Dead
7 | FC(F)(F)c1ccc(CNc2cc(Oc3ccccc3Cl)ncn2)cc1 [AKC 360] | OK (no effect (˜1000+ progeny)) | OK (no effect (˜1000+ progeny)) | OK (no effect (˜1000+ progeny)) | OK (no effect (˜1000+ progeny)) | Dead | 112 | L4/AD/B! | 151 | 139 | 1AD/B!-No P | 272 | Dead
8 | CN(c1cc(Oc2ccc(-c3ccccc3)cc2)ncn1)C1CCCCC1 [AKC 363] | OK (no effect (˜1000+ progeny)) | OK (no effect (˜1000+ progeny)) | OK (no effect (˜1000+ progeny)) | ˜B (moderate broodsize (100-250 progeny)) | < (reduced broodsize (250-500 progeny)) | 122 | Dead | 165 | 141 | Dead | 275 | Dead
9 | Clc1cccc(CNc2cc(Oc3cccc(Cl)c3)ncn2)c1 [AKC 364] | OK (no effect (˜1000+ progeny)) | OK (no effect (˜1000+ progeny)) | < (reduced broodsize (250-500 progeny)) | ˜B (moderate broodsize (100-250 progeny)) | – | 108 | L4/AD/B! | 146 | 121 | 4AD/˜B | 236 | Dead(L2/L3)
10 | Fc1ccc(Oc2cc(NCc3ccccc3F)ncn2)cc1 [AKC 367] | OK (no effect (˜1000+ progeny)) | OK (no effect (˜1000+ progeny)) | < (reduced broodsize (250-500 progeny)) | < (reduced broodsize (250-500 progeny)) | < (reduced broodsize (250-500 progeny)) | 91 | B (low broodsize (25-100 progeny)) | 123 | 123 | 2AD/B | 239 | L1
11 | Fc1ccc(Oc2cc(NCc3cc(F)cc(F)c3)ncn2)cc1 [AKC 369] | OK (no effect (˜1000+ progeny)) | OK (no effect (˜1000+ progeny)) | OK (no effect (˜1000+ progeny)) | < (reduced broodsize (250-500 progeny)) | – | 94 | B (low broodsize (25-100 progeny)) | 127 | 115 | 1AD/B | 225 | Dead
12 | CC(C)(C)OC(=O)N1CCN(c2cc(Oc3ccc(F)cc3)ncn2)CC1 [AKC 373] | OK (no effect (˜1000+ progeny)) | OK (no effect (˜1000+ progeny)) | OK (no effect (˜1000+ progeny)) | – | – | 83 | B (low broodsize (25-100 progeny)) | 112 | 132 | – | 257 | L4
13 | CC(C)(C)OC(=O)N1CCN(c2cc(Oc3ccccc3Cl)ncn2)CC1 [AKC 374] | OK (no effect (˜1000+ progeny)) | OK (no effect (˜1000+ progeny)) | OK (no effect (˜1000+ progeny)) | OK (no effect (˜1000+ progeny)) | – | 114 | – | 154 | 139 | L3-Dying | 271 | Dead(L2/L3)
